Laboratory results: PubChem BioAssay (NCI)
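GI50: concentration for 50% inhibition of growth. TGI is the concentration that stops growth completely.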

Legend:
Experiment in all cases: NCI-60 cell line screen, 384-well format
NCI-H322M lung = test system: NCI-H322M lung
NCI-H460 NSCLC = test system: NCI-H460 NSCLC
NCI-H522 lung = test system: NCI-H522 lung
NCI/ADR-RES ovarian = test system: NCI/ADR-RES ovarian
OVCAR-3 ovarian = test system: OVCAR-3 ovarian
OVCAR-4 ovarian = test system: OVCAR-4 ovarian
OVCAR-5 ovarian = test system: OVCAR-5 ovarian
OVCAR-8 ovarian = test system: OVCAR-8 ovarian
PC-3 prostate = test system: PC-3 prostate
RPMI-8226 leukemia = test system: RPMI-8226 leukemia
RXF 393 renal = test system: RXF 393 renal
SF-268 CNS = test system: SF-268 CNS
SF-295 CNS = test system: SF-295 CNS
SF-539 CNS = test system: SF-539 CNS
SK-MEL-2 melanoma = test system: SK-MEL-2 melanoma
SK-MEL-28 melanoma = test system: SK-MEL-28 melanoma
SK-MEL-5 melanoma = test system: SK-MEL-5 melanoma
SK-OV-3 ovarian = test system: SK-OV-3 ovarian
SN12C renal = test system: SN12C renal
SNB-19 CNS = test system: SNB-19 CNS
SR leukemia = test system: SR leukemia
SW-620 colon = test system: SW-620 colon
T-47D breast = test system: T-47D breast
TK-10 renal = test system: TK-10 renal
U251 glioblastoma = test system: U251 glioblastoma
UACC-257 melanoma = test system: UACC-257 melanoma
UACC-62 melanoma = test system: UACC-62 melanoma
UO-31 renal = test system: UO-31 renal

`C=CC(=O)Nc1cc(Nc2ncc(C(=O)OC(C)C)c(-c3cn(C)c4ccccc34)n2)c(OC)cc1N(C)CCN(C)C` was tested, and the TGI (NCI-H322M lung) was 1.76 µM, the GI50 (NCI-H460 NSCLC) was 1.63 µM and the TGI (NCI-H460 NSCLC) was 2.98 µM. The GI50 (NCI-H522 lung) was < 0.01 µM, the TGI (NCI-H522 lung) was 1.4 µM and the GI50 (NCI/ADR-RES ovarian) was 1.55 µM. For the same compound, the TGI (NCI/ADR-RES ovarian) was 4.34 µM, the GI50 (OVCAR-3 ovarian) was 1.2 µM and the TGI (OVCAR-3 ovarian) was 2.68 µM. For the same compound, the GI50 (OVCAR-4 ovarian) was 1.8 µM, the TGI (OVCAR-4 ovarian) was 4.21 µM and the GI50 (OVCAR-5 ovarian) was 4.18 µM. The TGI (OVCAR-5 ovarian) was > 100 µM, the GI50 (OVCAR-8 ovarian) was 1.75 µM and the TGI (OVCAR-8 ovarian) was 3.31 µM. It also gave a GI50 (PC-3 prostate) of 2.1 µM, a TGI (PC-3 prostate) of 4.08 µM and a GI50 (RPMI-8226 leukemia) of 1.19 µM. For the same compound, the TGI (RPMI-8226 leukemia) was 2.42 µM, the GI50 (RXF 393 renal) was 1.45 µM and the TGI (RXF 393 renal) was 2.76 µM. For the same compound, the GI50 (SF-268 CNS) was 1.57 µM, the TGI (SF-268 CNS) was 2.96 µM and the GI50 (SF-295 CNS) was 7.04 µM. It also gave a TGI (SF-295 CNS) of 19.5 µM, a GI50 (SF-539 CNS) of 1.79 µM and a TGI (SF-539 CNS) of 3.18 µM. It also gave a GI50 (SK-MEL-2 melanoma) of 1.57 µM, a TGI (SK-MEL-2 melanoma) of 2.91 µM and a GI50 (SK-MEL-28 melanoma) of 1.71 µM. For the same compound, the TGI (SK-MEL-28 melanoma) was 3.08 µM, the GI50 (SK-MEL-5 melanoma) was 1.89 µM and the TGI (SK-MEL-5 melanoma) was 3.29 µM. For the same compound, the GI50 (SK-OV-3 ovarian) was 0.05 µM, the TGI (SK-OV-3 ovarian) was 2.04 µM and the GI50 (SN12C renal) was 1.63 µM. It also gave a TGI (SN12C renal) of 3.38 µM, a GI50 (SNB-19 CNS) of 3.99 µM and a TGI (SNB-19 CNS) of 15.1 µM. The GI50 (SR leukemia) was 1.1 µM, the TGI (SR leukemia) was 2.29 µM and the GI50 (SW-620 colon) was 1.92 µM. The TGI (SW-620 colon) was 3.34 µM, the GI50 (T-47D breast) was 1.28 µM and the TGI (T-47D breast) was 2.56 µM. The GI50 (TK-10 renal) was 0.0635 µM, the TGI (TK-10 renal) was 1.71 µM and the GI50 (U251 glioblastoma) was 1.75 µM. It also gave a TGI (U251 glioblastoma) of 3.13 µM, a GI50 (UACC-257 melanoma) of 1.5 µM and a TGI (UACC-257 melanoma) of 2.83 µM. The GI50 (UACC-62 melanoma) was 1.63 µM, the TGI (UACC-62 melanoma) was 2.99 µM and the GI50 (UO-31 renal) was 1.02 µM. The TGI (UO-31 renal) was 2.19 µM.
